The target of one assay is T1, FGF-R1 (Homo sapiens, UniProt P11362, C488A/C584S/L457V).
T1 construct: starting from the endogenous methionine residue 456 to glutamate 766; made in house; host or cells: baculovirus vector expression system
In words: FGF-R spectrophotometric assay. In kind it is biochemical. To be noted: Table 3; % inh @ 1 uM; read-out: FGF-P Ki (nM) (% inh @ 1 uM). An outline of the steps:
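Kinase domain (Met456–Glu766, baculovirus-expressed) used at 50 nM in a spectrophotometric assay run as for VEGF-R2. Substrates were 2 mM ATP and 15 mM poly(E4Y1).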

Assay [1] relates to human umbilical vein endothelial cells (HUVEC). The assay is described as follows: HUVEC proliferation assay. It is filed as cell-based. Conditions: Homo sapiens, HUVEC, Table 3. An outline of the steps: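 Exponentially growing HUVEC were serum-starved 24 h (F12K + 1% FBS), pre-treated 1 h with compound (0.1% DMSO final), then stimulated with 6 ng/ml VEGF. Proliferation was read 72 h later by MTT reduction (A595). IC50 came from seven 0.5-log concentrations in triplicate; screens gave % inhibition relative to VEGF-only and starved wells.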

The target of another assay is T2, LCK tyrosine kinase (Homo sapiens, UniProt P06239, C224D/P223M).
T2 construct: starting from amino acid residue 223 to the end of the protein at residue 509; made in house; host or cells: insect cells
The assay is described as follows: LCK spectrophotometric assay. It is filed as biochemical. Conditions: Table 3, read-out: LCK (% inh @ 1 uM).

For assay [2], the target named is T3, phosphorylated VEGF-R2Δ50 (FLVK-P) (Homo sapiens, UniProt P35968, DEL940-989/E990V).
T3 construct: VEGF-R2Δ50 contains residues 806-939 and 990-1171; made in house; host or cells: baculovirus/insect cells
The assay is described as follows: VEGF-R2 coupled spectrophotometric (FLVK-P) assay. It is filed as biochemical. Conditions: Table 3; at 50 nM. An outline of the steps:
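Baculovirus-expressed human VEGF-R2Δ50 (residues 806-939/990-1171, E990V) was autophosphorylated with 3 mM ATP, 40 mM MgCl2 for 2 h at 4° C. ADP formation was coupled via PK/LDH to NADH oxidation, read at 340 nm, with 5.1 mM poly(E4Y1), 1 mM ATP, 25 mM MgCl2, Hepes pH 7.5. Ki came from activity across compound concentrations.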

For assay [3], the system named is VEGF dependent retinal neovascularization. In words: In vivo assay in neonatal rat model of retinopathy of prematurity. Conditions: intravitreal injection. How it is done: In Vivo Assay of Retinal Vascular Development in Neonatal Rat Model of Retinopathy of Prematurity
A second model of VEGF dependent retinal neovascularization was employed to evaluate the activities of this series of compounds. In this model (Penn et. al, Invest. Ophthalmol. Vis. Sci., 36, 2063, (1995)), rats pups (n=16) with their mother are placed in a computer controlled chamber that regulates the concentration of oxygen. The animals are exposed for 24 hours to a concentration of 50% oxygen followed by 24 hours at a concentration of 10% oxygen. This alternating cycle of hyperoxia followed by hypoxia is repeated 7 times after which the animals are removed to room air (P14). Compounds are administered via intravitreal injection upon removal to room air and the animals are sacrificed 6 days later (P20). The isolated retinas are then isolated, stained mounted and analyzed as detail above in the development model. The effectiveness was also graded as is described for the development model.

For assay [4], the target named is T4, unphosphorylated VEGF-R2Δ50 (FLVK) (Homo sapiens, UniProt P35968, DEL940-989/E990V).
T4 construct: VEGF-R2Δ50 contains residues 806-939 and 990-1171; made in house; host or cells: baculovirus/insect cells
In words: VEGF-R2 coupled spectrophotometric assay, unphosphorylated enzyme (FLVK). In kind it is biochemical. To be noted: Table 3; some entries 'Slow binder'. The gist of the method:
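Unphosphorylated VEGF-R2Δ50 (5 to 40 nM) with 20 mM poly(E4Y1), 3 mM ATP, 60 mM MgCl2, 2 mM MnCl2 in 200 mM Hepes pH 7.5. ADP production coupled via PK/LDH to NADH oxidation, read at 340 nm. Ki from activity at varying compound concentrations.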

A further assay deals with VEGF. In words: In vivo assay of retinal vascular development in neonatal rats. Also on record: species or system rat. To be noted: development model; intravitreal, 2 μl of 5 mg/ml initial drug concentration. The source says:
In Vivo Assay of Retinal Vascular Development in Neonatal Rats
The development of the retinal vascular in rats occurs from postnatal day 1 to postnatal day 14 (P1-P14). This process is dependent on the activity of VEGF (J. Stone, et al, J. Neurosci., 15, 4738 (1995)). […] To assess the ability of specific compounds to inhibit the activity of VEGF in vivo, compounds were formulated in an appropriate vehicle, usually 50% polyethylene glycol, average molecular weight 400 daltons, and 50% solution of 300 mM sucrose in deionized water. Typically, two microliters (2 μl) of the drug solution was injected into the midvitreous of the eye of rat pups on postnatal day 8 or 9. Six days after the intravitreal injection, the animals were sacrificed and the retinas dissected free from the remaining ocular tissue. […] The individual retinas are then flat-mount onto glass slides and examined to determine the extent of vascularization. […] The amount of vessel regression was used to assess the relative potency of the compounds after in vivo administration. Vessel regression is graded on subjective scale of one to three pluses, with one plus being detectable regression judged to be approximately 25 percent or less, two pluses being judged to be approximately 25-75% regression and three pluses give to retinas with near total regression (approximately 75% or greater).

Each structure is given as a SMILES string.

The IC50 is the concentration needed to halve the response being measured. As a reminder, the Ki is a measure of affinity in units of concentration, obtained from inhibition or displacement. Lower therefore signals a stronger hold on the target.

T2 sequence (P06239 223-509 P223M/C224D): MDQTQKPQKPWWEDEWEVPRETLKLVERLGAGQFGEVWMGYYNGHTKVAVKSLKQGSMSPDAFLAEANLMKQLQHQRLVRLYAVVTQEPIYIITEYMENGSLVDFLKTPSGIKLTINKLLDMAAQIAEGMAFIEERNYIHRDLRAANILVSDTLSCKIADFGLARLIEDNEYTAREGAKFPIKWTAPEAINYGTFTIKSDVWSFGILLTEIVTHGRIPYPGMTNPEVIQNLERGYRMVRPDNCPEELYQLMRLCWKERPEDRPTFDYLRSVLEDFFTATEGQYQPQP
T1 sequence (P11362 456-766 L457V/C488A/C584S): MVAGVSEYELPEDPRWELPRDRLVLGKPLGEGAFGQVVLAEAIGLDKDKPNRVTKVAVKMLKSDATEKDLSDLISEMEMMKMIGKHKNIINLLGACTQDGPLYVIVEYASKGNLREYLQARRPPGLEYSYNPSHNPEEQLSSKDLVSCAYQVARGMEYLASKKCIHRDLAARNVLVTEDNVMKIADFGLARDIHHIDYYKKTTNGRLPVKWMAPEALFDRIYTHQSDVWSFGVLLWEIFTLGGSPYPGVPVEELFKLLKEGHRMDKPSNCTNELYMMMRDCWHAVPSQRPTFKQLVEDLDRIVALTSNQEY
T3 sequence (P35968 with tags, fused parts or gaps DEL940-989/E990V limits assumed): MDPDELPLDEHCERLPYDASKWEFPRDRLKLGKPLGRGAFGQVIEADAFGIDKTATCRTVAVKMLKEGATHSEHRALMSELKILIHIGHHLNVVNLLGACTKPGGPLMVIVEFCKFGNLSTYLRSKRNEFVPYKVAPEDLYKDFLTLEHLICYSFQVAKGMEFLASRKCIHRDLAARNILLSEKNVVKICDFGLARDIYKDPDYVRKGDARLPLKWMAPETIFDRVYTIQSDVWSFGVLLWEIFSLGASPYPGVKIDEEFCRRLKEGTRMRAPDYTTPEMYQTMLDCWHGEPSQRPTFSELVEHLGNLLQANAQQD
T4 sequence (P35968 with tags, fused parts or gaps DEL940-989/E990V limits assumed): as above

On to `COc1cccc(C(=O)Nc2ccc(C)c(-c3noc(-c4sc(Nc5cc(OC)c(OC)c(OC)c5)nc4N)n3)c2)c1` [D(74), 3-[3-[(3-methoxybenzoyl)amino]-6-methyl-phenyl]-5-[2-[(3,4,5-trimethoxyphenyl)amino]-4-amino-5-thiazolyl]-1,2,4-oxadiazole], for which the figures for the inhibition at 1 µM at FGF-R1 and at LCK tyrosine kinase were 61% and 92%, respectively. This compound returned an IC50 in assay [1] of 5.2 nM. In assay [2], this compound had an inhibition at 0.05 µM of 91%. Moreover, the Vessel regression grade result in assay [3] is “++ (two pluses being judged to be approximately 25-75% regression)”.
In assay [4], `CCn1nc(C)cc1C(=O)Nc1ccc(C)c(-c2noc(-c3sc(Nc4ccc(CO)cc4)nc3N)n2)c1` [B(30)] displayed an inhibitory constant (Ki) of 0.085 nM. Besides, the Vessel regression grade entry in the assay with VEGF is “++ (two pluses being judged to be approximately 25-75% regression)”.
